According to patent publication US8501759B2, “Use of fibrates” (Fournier Laboratories Ireland Limited, priority 2009, dated 2013):

Columns and labels:
[1] = test system: patients with sleep apnea syndrome; test: Epworth Sleepiness Scale (ESS); type: in vivo, human; conditions: fenofibrate group, at baseline and at end of treatment; global score 0 to 24
Text: (§1) Variables assessed as complementary analyses: cumulated duration of apnea, mean duration of apnea, duration of the longest apnea, number of non cortical micro-awakening indicators related to respiratory events/hour, number of non cortical micro-awakening indicators related to respiratory events, oxygen saturation in blood measured by pulse oximetry (SpO2) in wake state, mean SpO2 on sleep recording, minimum value of SpO2, percentage of time spent with SpO2<80%, percentage of time spent with SpO2<85%, number of tachycardia, mean duration of tachycardia, number of bradycardia, mean duration of bradycardia, mean pulse rate, standard deviation pulse rate, minimum pulse rate, maximum pulse rate, decrease in daytime sleepiness assessed by the ESS, vigilance tests (reflexive visually guided saccades, antisaccades and sustained attention test).
This scale is the most widely index used to measure sleep apnea subjectively. It is a self-administered questionnaire that asks patients their likelihood of falling asleep in 8 situations ranked from 0 (no chance of dozing), 1 (slight chance of dozing), 2 (moderate chance of dozing) to 3 (high chance of dozing). The numbers are then added together to obtain a global score between 0 and 24. A value of 10 or below is considered normal.

[2] = test system: patients with sleep apnea syndrome; test: Overnight sleep study: pulse oximetry (SpO2, desaturations); type: in vivo, human
Text: (§2) Primary variables: number of obstructive apneas, of central apneas, of mixed apneas, total number of apneas, index of apnea per sleep hour, total number of hypopneas, index of hypopnea per sleep hour, index of apnea/hypopnea per sleep hour, total number of desaturations per sleep hour (with a variation of at least 3-4%), and percentage of time spent with SpO2<90%.
as §1
Desaturation episodes were the markers of respiratory impairment. All-night recordings of arterial oxygen saturation were obtained using a cardio-respiratory pulse oximeter attached to the finger (SpO2).
Severity of obstructive sleep apnea was measured by the number of falls in SpO2 of more than 3-4% per hour of sleep. The equipment automatically selected the desaturation threshold (3 or 4%) according to the baseline SpO2 value. To further define the severity of OSA, the lowest SpO2 point and the percentage of time spent with SpO2<90% was determined.

[3] = test system: patients with sleep apnea syndrome; test: Overnight sleep study: apnea/hypopnea recording (CID 102) in the 1-month placebo-controlled study; type: in vivo, human
Text: This study comprised 2 phases: • a run-in period of 1 to 5 weeks, on usual diet, • a treatment period of at least 4 weeks (40 days maximum).
as §2, §1
Throughout the night, respiration was monitored by a sound pressure transducer placed on the suprasternal notch facing the trachea or thoracic strain gauges (model CID 102) (Van Surell C, Lemaigre D, Leroy M, Foucher A, Hagenmuller M P, Raffestin B. Evaluation of an ambulatory device, CID 102, in the diagnosis of obstructive sleep apnea syndrome. Eur Respir J. 1995; 8(5):795-800).
Apnea is defined as an absence of inspiratory flow for at least 10 seconds.
Hypopnea is defined as a 50% to 80% reduction in airflow combined with 3-4% oxygen desaturations.
Sleep apneas are classified as obstructive or central.
Central apneas are defined as total absence of inspiratory flow and chest/abdominal movement during the period of absence of inspiration flow.
Obstructive sleep apneas are defined by a decrease in airflow of more than 80% in the presence of paradoxical movements of the ribcage and abdomen. Similar to AHI, the obstructive and central apneas were based on definitions that require events to be associated with 3-4% desaturations.

[4] = test system: patients with sleep apnea syndrome; test: Laboratory efficacy variables (lipids, glucose, fibrinogen, insulin); type: in vivo, human
Protocol: Secondary variables: % change from baseline (V2) in fasting and post-prandial TG, total cholesterol (TC), high-density lipoprotein cholesterol (HDL-C), fasting plasma glucose (FPG), fibrinogen and insulin.
TC, TG, HDL-C, glucose, fibrinogen and insulin were measured at inclusion and during the 2 hospital admissions before a lipid rich breakfast. Insulin was also measured before the lipid rich breakfast, each morning following the sleep study.
Post-prandial TG were measured 4 hours after a lipid rich breakfast.

[5] = test system: patients with sleep apnea syndrome; test: Sustained attention test; conditions: end of treatment (V3)
[6] = 160 mg tablet administered with food; cited from earlier work
[7] = test system: patients with sleep apnea syndrome; test: Safety (adverse events, safety laboratory, vital signs)
[8] = ANCOVA on Log-transformed V3 values, relative difference
[9] = end of treatment (V3), ANCOVA on non-transformed data
[10] = fenofibrate 145 mg group, end of treatment (V3)
[11] = end of treatment (V3), ANCOVA on Log-transformed data, relative difference
[12] = end of treatment (V3), ANCOVA on non-transformed data, absolute difference
[13] = fenofibrate group, treatment period

SMILES: CC(C)OC(=O)C(C)(C)Oc1ccc(C(=O)c2ccc(Cl)cc2)cc1 [Fenofibrate, fenofibrate]
- median of the ESS [1]: 8.5
- Number of desaturations, Fenofibrate-Placebo at end of treatment, Estimate [2, 8]: −23%
- Mean of SPO2 on recording, Fenofibrate-Placebo Estimate [2, 9]: 1.1%
- Minimum value of SpO2, Fenofibrate-Placebo Estimate [2, 9]: 0.4%
- Mean of SPO2 on recording, End (V3) (median) [2, 10]: 94.0%
- Minimum value of SpO2, End (V3) (median) [2, 10]: 82.0%
- Number of desaturations, End (V3) (median) [2, 10]: 130.0
- Percentage of time with SpO2 < 90%, End (V3) (median) [2, 10]: 3.5%
- Percentage time spent with SpO2 < 80%, End (V3) (median) [2, 10]: 0.0%
- Percentage time spent with SpO2 < 85%, End (V3) (median) [2, 10]: 0.0%
- SpO2 in wake state, End (V3) (median) [2, 10]: 95.0%
- Number of central apneas, Fenofibrate-Placebo at end of treatment, Estimate [3, 8]: −55%
- Number of hypopneas, Fenofibrate-Placebo at end of treatment, Estimate [3, 8]: −46%
- Number of mixed apneas, Fenofibrate-Placebo at end of treatment, Estimate [3, 8]: −25%
- Number of obstructive apneas, Fenofibrate-Placebo at end of treatment, Estimate [3, 8]: −44%
- Number of apneas, Fenofibrate-Placebo at end of treatment, Estimate ([3]; ANCOVA on Log-transformed V3 values, relative difference, minus = improvement): −35%
- Cumulated duration of apnea, Fenofibrate-Placebo Estimate ([3]; end of treatment (V3), ANCOVA on Log-transformed data): −31%
- Number of non cortical micro-awakening, Fenofibrate-Placebo Estimate [3, 9]: −75.7
- Cumulated duration of apnea, End (V3) (median) [3, 10]: 4.5 min
- Duration of the longest apnea, End (V3) (median) [3, 10]: 23.5 s
- Mean duration of apnea, End (V3) (median) [3, 10]: 13.5 s
- Number of central apneas, End (V3) (median) [3, 10]: 1.0
- Number of hypopneas, End (V3) (median) [3, 10]: 63.0
- Number of mixed apneas, End (V3) (median) [3, 10]: 1.0
- Number of non cortical micro-awakening, End (V3) (median) [3, 10]: 128.0
- Number of obstructive apneas, End (V3) (median) [3, 10]: 15.0
- Number of apneas, End (V3) (median) ([3]; fenofibrate 145 mg group, end of treatment (V3), total number during sleep recording): 20.5
- Non cortical micro-awakening per hour, End (V3) (median) ([3]; fenofibrate 145 mg group, end of treatment (V3), indicators related to respiratory events): 18.0
- effect on fasting plasma glucose (FPG) ([4]; end of treatment): no effect
- HDL-Cholesterol, Fenofibrate-Placebo Estimate [4, 11]: 2%
- Post-Prandial Triglycerides, Fenofibrate-Placebo Estimate [4, 11]: −26%
- Fasting Plasma Glucose, Fenofibrate-Placebo Estimate [4, 12]: 0.2 mmol/L
- Fibrinogen, Fenofibrate-Placebo Estimate [4, 12]: -1.7 µmol/L
- Insulin, Fenofibrate-Placebo Estimate [4, 12]: 12.1 pmol/L
- Total Cholesterol, Fenofibrate-Placebo Estimate [4, 12]: -0.8 mmol/L
- Fasting Plasma Glucose, End (V3) (median) [4, 10]: 5.45 mmol/L
- Fasting Triglycerides, End (V3) (median) [4, 10]: 2.00 mmol/L
- Fibrinogen, End (V3) (median) [4, 10]: 8.82 µmol/L
- Insulin, End (V3) (median) [4, 10]: 94.4 pmol/L
- Total Cholesterol, End (V3) (median) [4, 10]: 4.58 mmol/L
- Post-Prandial Triglycerides, End (V3) (median) ([4]; fenofibrate 145 mg group, end of treatment (V3), 4 hours after a lipid rich breakfast): 3.27 mmol/L
- Maximum latency all sarters, Fenofibrate-Placebo Estimate ([5]; ANCOVA on Log-transformed data, relative difference): 7%
- Mean latency all sarter, Fenofibrate-Placebo Estimate ([5]; ANCOVA on non-transformed data, absolute difference): 3.6 ms
- Maximum latency all sarters, End (V3) (median) ([5]; fenofibrate 145 mg group): 750.0 ms
- Minimum latency all sarters, End (V3) (median) ([5]; fenofibrate 145 mg group): 295.0 ms
- Percent false responses all sarters, End (V3) (median) ([5]; fenofibrate 145 mg group): 1.1
- Percent omissions all sarters, End (V3) (median) ([5]; fenofibrate 145 mg group): 0.0
- Standard Deviation latency all sarters, End (V3) (median) ([5]; fenofibrate 145 mg group): 98.0 ms
- Mean latency all sarter, End (V3) (median) ([5]; fenofibrate 145 mg group, mean of the 5 tests): 409.7 ms
- increase of exposure to fenofibric acid with food compared to fasting conditions [6]: 35%
- tolerability ([7]; 4-week treatment, 145 mg once daily): well tolerated
- changes in mean values of pulse rate, DBP or SBP between baseline and end of treatment ([7]; either treatment group): no meaningful changes
- other safety biological variables (ALT, AST, CK), fenofibrate vs placebo ([7]; end of treatment): did not differ between the 2 groups
- Median % change at end of treatment from baseline in RBC ([7]; fenofibrate group): −2.7%
- Median % change at end of treatment from baseline in WBC ([7]; fenofibrate group): −11.6%
- Median % change at end of treatment from baseline in hematocrit ([7]; fenofibrate group): −3.2%
- Median % change at end of treatment from baseline in hemoglobin ([7]; fenofibrate group): −3.8%
- AEs reported (kinds) [7, 13]: bloating (n=1), rash (n=1), allergic rhinitis (n=1), metabolic syndrome (SAE, n=1), type 2 diabetes (n=1), and cystitis (n=1)
- number of AEs reported [7, 13]: 6
- number of patients with AEs [7, 13]: 3
- number of SAE reported during the treatment period ([7]; fenofibrate group, hospitalized for assessment of metabolic syndrome, not related to study treatment): 1
- Median % change at end of treatment from baseline in platelets ([7]; fenofibrate group, p=0.007 vs placebo): +4.7%
- Median % change at end of treatment from baseline in creatinine ([7]; fenofibrate group, p=0.015 vs placebo): +5.9%
- mean values of body weight and BMI at end of treatment compared to baseline ([7]; in vivo): remained roughly unchanged
- AEs considered as related to study treatment ([7]; treatment period): None
